{"source": "BindingDB's records for doi:10.1016/j.bmcl.2019.02.028", "about": "(Indiana University School of Medicine, 2019)", "biological_target": "Chaperonin GroEL (Escherichia coli (strain K12), UniProt P0A6F5)", "sequence (P0A6F5 2-548 limits assumed)": "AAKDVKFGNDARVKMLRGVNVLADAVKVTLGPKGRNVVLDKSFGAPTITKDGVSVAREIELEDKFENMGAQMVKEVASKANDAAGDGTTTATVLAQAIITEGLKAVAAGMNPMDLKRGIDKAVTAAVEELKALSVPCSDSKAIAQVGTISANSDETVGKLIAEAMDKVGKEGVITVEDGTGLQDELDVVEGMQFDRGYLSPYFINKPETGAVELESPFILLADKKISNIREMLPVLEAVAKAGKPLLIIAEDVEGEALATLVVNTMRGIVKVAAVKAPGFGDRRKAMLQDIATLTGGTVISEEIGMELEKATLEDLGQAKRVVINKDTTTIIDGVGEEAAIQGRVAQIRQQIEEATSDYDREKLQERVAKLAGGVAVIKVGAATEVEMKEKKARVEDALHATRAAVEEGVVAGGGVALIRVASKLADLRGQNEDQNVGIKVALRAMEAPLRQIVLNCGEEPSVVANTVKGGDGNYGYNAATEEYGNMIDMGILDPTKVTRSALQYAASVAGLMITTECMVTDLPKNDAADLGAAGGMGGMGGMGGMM", "test": "Binding affinity to Escherichia coli GroEL expressed in Escherichia coliDH5alpha by ITC assay"}
{"compound": "CC1=CCC(C(=O)/N=C2\\CC=C(S(=O)(=O)O)c3cc(S(=O)(=O)O)cc(S(=O)(=O)O)c32)=C/C1=N/C(=O)C1=CC=C/C(=N\\C(=O)/N=C2\\C=CC=C(C(=O)/N=C3/CC(C(=O)/N=C4\\CC=C(S(=O)(=O)O)c5cc(S(=O)(=O)O)cc(S(=O)(=O)O)c54)=CC=C3C)C2)C1", "values": [{"measurement": "Kd", "result": 9.8, "unit": "µM"}]}
